Measurements published in patent US20100009935A1, “RESISTANCE-REPELLENT […] INHIBITORS” (priority 2002, published 2010).
Read-outs that look alike come from different tables or passages of the source.

Assays:
Assay type in all cases: cell-based
HIV-1APV-P30 = test: PI sensitivity of APV-selected HIV-1APV-P30 in MT-2 cells, MTT assay; settings: for FOLD CHANGE of IC50: HIV-1APV-P30 compared to HIV-1NL4-3 (wild type)
HIV-1LAI = test: microbe, parasite or virus in culture; settings: day 7, read-out: MEAN IC50 (μM) ± SDs
Method: (§1) The sensitivities of HIV-1LAI, HIV-1Ba-L, HIV-2EHO and the primary HIV-1 isolates against various drugs were determined as previously described with minor modifications (Shiraska et al., Proc. Natl. Acad. Sci. USA, 92, 2398-2402 (1995)).

HIV-1Ba-L = test: microbe, parasite or virus in culture; settings: Human immunodeficiency virus 1, 168 h, PBNC (PHA-PBMC), p24 production, day 7, read-out: MEAN IC50 (μM) ± SDs
Method: as §1

HIV-1 clinical isolate 6 = test: PI sensitivity of PI-resistant clinical isolate 6 in PHA-PBMC, p24; settings: for IC50: Human immunodeficiency virus 1, isolate 6: L10I, K14R, B41K, H46L, I54V, L63P, A71V, V82A, L90M, I93L, PHA-PBMC, p24; for FOLD CHANGE of IC50: isolate 6 compared to HIV-1wt (HIV-1ERS104pre)
[1] = system: highly cross-resistant HIV-1 strains derived from AIDS patients
[2] = system: HIV-1ERS104pre (wild-type clinical strain); test: PI sensitivity of wild-type clinical isolate in PHA-PBMC, p24; settings: for FOLD CHANGE of IC50: wild type HIV-1ERS104pre, reference (=1)
HIV-1 clinical isolate 8 = test: PI sensitivity of PI-resistant clinical isolate 8 in PHA-PBMC, p24; settings: for IC50: isolate 8: L10R, H37D, N46I, I62V, L63P, A71V, G73S, V77I, V82T, L90M, I93L, PHA-PBMC, p24; for FOLD CHANGE of IC50: isolate 8 compared to HIV-1wt (HIV-1ERS104pre)
HIV-1NL4-3 = settings: for IC50: Human immunodeficiency virus 1, MT2, 168 h, HIV-1NL4-3 (wild type), MT-2 cells, MTT assay, day 7; for FOLD CHANGE of IC50: HIV-1NL4-3, reference (=1)
HIV-1 clinical isolate 7 = test: PI sensitivity of PI-resistant clinical isolate 7 in PHA-PBMC, p24; settings: for IC50: Human immunodeficiency virus 1, isolate 7: L10I, L24I, L33F, E35D, H36I, H37S, N46L, I54V, R57K, I62V, L63P, A71V, G73S, V82A, PHA-PBMC, p24; for FOLD CHANGE of IC50: isolate 7 compared to HIV-1wt (HIV-1ERS104pre)
HIV-2EHO = test: Drug sensitivity of HIV-2EHO in MT-2 cells, MTT assay; settings: HT-2 (footnote: MT-2 cells), day 7, read-out: MEAN IC50 (μM) ± SDs
Method: as §1

HIV-1 clinical isolate 4 = test: PI sensitivity of PI-resistant clinical isolate 4 in PHA-PBMC, p24; settings: for IC50: isolate 4: L10I, V11I, T12E, I15V, L19I, B41K, H46L, L63P, A71T, V82A, L90M, PHA-PBMC, p24; for FOLD CHANGE of IC50: isolate 4 compared to HIV-1wt (HIV-1ERS104pre)
HIV-1 clinical isolate 5 = test: PI sensitivity of PI-resistant clinical isolate 5 in PHA-PBMC, p24; settings: for IC50: isolate 5: L10I, K43T, N46L, I54L, L63P, A71T, V82A, L90N, D92K, PHA-PBMC, p24; for FOLD CHANGE of IC50: isolate 5 compared to HIV-1wt (HIV-1ERS104pre)
HIV-1 clinical isolate 1 = test: PI sensitivity of PI-resistant clinical isolate 1 in PHA-PBMC, p24; settings: for IC50: Human immunodeficiency virus 1, isolate 1: L10I, K14R, L33I, N36I, H46I, F53L, K55R, I62V, L63P, A71V, G73S, V82A, L90M, I93L, PHA-PBMC, p24; for FOLD CHANGE of IC50: isolate 1 compared to HIV-1wt (HIV-1ERS104pre)
HIV-1 clinical isolate 3 = test: PI sensitivity of PI-resistant clinical isolate 3 in PHA-PBMC, p24; settings: for IC50: isolate 3: L10I, I15V, E35D, N37E, K45R, I54V, L63P, A71V, V82I, L90N, I93L, C95F, PHA-PBMC, p24; for FOLD CHANGE of IC50: isolate 3 compared to HIV-1wt (HIV-1ERS104pre)
HIV-1UIC-P62 = test: PI sensitivity of compound 1-selected HIV-1UIC-P62 in MT-2 cells, MTT assay; settings: HIV-1UIC-P62 (L10F, A28S, M46I, I50V, A71V, N88D), day 7
HIV-1 clinical isolate 2 = test: PI sensitivity of PI-resistant clinical isolate 2 in PHA-PBMC, p24; settings: for IC50: isolate 2: L10I, I15V, K20R, N36I, H46L, I54V, K55R, I62V, L63P, K70D, V82A, L89N, PHA-PBMC, p24; for FOLD CHANGE of IC50: isolate 2 compared to HIV-1wt (HIV-1ERS104pre)
[3] = Human immunodeficiency virus 1, MT2, 168 h
[4] = Human immunodeficiency virus 1, 168 h, PBMC (PHA-PBMC), p24 production
[5] = Human immunodeficiency virus 1, MT2, 168 h, HT-2 (footnote: MT-2 cells), MTT assay
[6] = multidrug resistant patient isolates
[7] = Human immunodeficiency virus 1, read-out: IC50 μM
[8] = Human immunodeficiency virus 2, MT2, 168 h

| SMILES | IC50 (HIV-1APV-P30; [3]) | IC50 (HIV-1LAI; [4]) | IC50 (HIV-1LAI; [5]) | IC50 (HIV-1Ba-L) | IC50 (HIV-1 clinical isolate 6) | antiviral activity against patient isolates with multiple mutations compared with wild type HIV strains (in words) [1, 6] | IC50 [2, 7] | IC50 (HIV-1 clinical isolate 8; Human immunodeficiency virus 1) | IC50 (HIV-1NL4-3) | IC50 (HIV-1 clinical isolate 7) | IC50 (HIV-2EHO; [8]) | IC50 (HIV-1 clinical isolate 4; Human immunodeficiency virus 1) | IC50 (HIV-1 clinical isolate 5; Human immunodeficiency virus 1) | IC50 (HIV-1 clinical isolate 1) | IC50 (HIV-1 clinical isolate 3; Human immunodeficiency virus 1) | IC50 (HIV-1UIC-P62; [3]) | IC50 (HIV-1 clinical isolate 2; Human immunodeficiency virus 1) | other results |
| --- | --- | --- | --- | --- | --- | --- | --- | --- | --- | --- | --- | --- | --- | --- | --- | --- | --- | --- |
| CC(C)CN(C[C@@H](O)[C@H](Cc1ccccc1)NC(=O)O[C@H]1CCOC1)S(=O)(=O)c1ccc(N)cc1 [APV, Amprenavir] | > 1000 nM | 0.017 ± 0.003 µM | 0.041 ± 0.01 µM | 0.023 ± 0.009 µM | 160 nM | much less effective | 0.025 µM | 150 nM | 42 nM | 490 nM | 0.53 ± 0.03 µM | 310 nM | 670 nM | 270 nM | 260 nM | 830 nM | 280 nM | – |
| Cc1cn([C@H]2C[C@H](N=[N+]=[N-])[C@@H](CO)O2)c(=O)[nH]c1=O [AZT, 3′-azido-2′,3′-dideoxythymidine] | – | 0.003 ± 0.0002 µM | 0.024 ± 0.003 µM | 0.011 ± 0.007 µM | – | – | – | – | – | – | 0.003 ± 0.001 µM | – | – | – | – | – | – | – |
| Nc1ccn([C@@H]2CS[C@H](CO)O2)c(=O)n1 [Compound 3TC, LAMIVUDINE] | – | 0.021 ± 0.018 µM | 0.66 ± 0.01 µM | 0.054 ± 0.046 µM | – | – | – | – | – | – | 0.4 ± 0.25 µM | – | – | – | – | – | – | – |
| CC(C)(C)NC(=O)[C@@H]1CN(Cc2cccnc2)CCN1C[C@@H](O)C[C@@H](Cc1ccccc1)C(=O)N[C@H]1c2ccccc2C[C@H]1O [IDV, Indinavir] | 320 nM | 0.015 ± 0.004 µM | 0.019 ± 0.009 µM | 0.017 ± 0.011 µM | 300 nM | – | 0.013 µM | 550 nM | 11 nM | > 1000 nM | 0.01 ± 0.004 µM | 210 nM | > 1000 nM | > 1000 nM | 490 nM | 80 nM | 490 nM | FOLD CHANGE of IC50 (HIV-1APV-P30): (30) fold; FOLD CHANGE of IC50 (HIV-1 clinical isolate 6): (23) fold; antiviral activity against patient isolates with multiple mutations compared with wild type HIV strains (in words) [1]: dramatically less potent; FOLD CHANGE of IC50 [2]: (1) fold; FOLD CHANGE of IC50 (HIV-1 clinical isolate 8): (42) fold; FOLD CHANGE of IC50 (HIV-1NL4-3): (1) fold; FOLD CHANGE of IC50 (HIV-1 clinical isolate 7): (>77) fold; FOLD CHANGE of IC50 (HIV-1 clinical isolate 4): (16) fold; FOLD CHANGE of IC50 (HIV-1 clinical isolate 5): (>77) fold; FOLD CHANGE of IC50 (HIV-1 clinical isolate 1): (>77) fold; FOLD CHANGE of IC50 (HIV-1 clinical isolate 3): (38) fold; FOLD CHANGE of IC50 (HIV-1 clinical isolate 2): (38) fold |
| Cc1c(O)cccc1C(=O)N[C@@H](CSc1ccccc1)[C@H](O)CN1C[C@H]2CCCC[C@H]2C[C@H]1C(=O)NC(C)(C)C [NFV, Nelfinavir] | > 1000 nM | 0.009 ± 0.0003 µM | 0.005 ± 0.002 µM | – | > 1000 nM | dramatically less potent | 0.023 µM | > 1000 nM | 23 nM | > 1000 nM | 0.02 ± 0.01 µM | 90 nM | 410 nM | > 1000 nM | > 1000 nM | 110 nM | 330 nM | – |
| CC(C)c1nc(CN(C)C(=O)N[C@H](C(=O)N[C@@H](Cc2ccccc2)C[C@H](O)[C@H](Cc2ccccc2)NC(=O)OCc2cncs2)C(C)C)cs1 [RTV, Ritonavir] | > 1000 nM | 0.04 ± 0.008 µM | 0.041 ± 0.005 µM | 0.038 ± 0.02 µM | > 1000 nM | dramatically less potent | 0.044 µM | > 1000 nM | 38 nM | > 1000 nM | 0.35 ± 0.025 µM | > 1000 nM | > 1000 nM | > 1000 nM | > 1000 nM | 55 nM | > 1000 nM | FOLD CHANGE of IC50 (HIV-1APV-P30): (>26) fold; FOLD CHANGE of IC50 (HIV-1 clinical isolate 6): (>23) fold; FOLD CHANGE of IC50 [2]: (1) fold; FOLD CHANGE of IC50 (HIV-1 clinical isolate 8): (>23) fold; FOLD CHANGE of IC50 (HIV-1NL4-3): (1) fold; FOLD CHANGE of IC50 (HIV-1 clinical isolate 7): (>23) fold; FOLD CHANGE of IC50 (HIV-1 clinical isolate 4): (>23) fold; FOLD CHANGE of IC50 (HIV-1 clinical isolate 5): (>23) fold; FOLD CHANGE of IC50 (HIV-1 clinical isolate 1): (>23) fold; FOLD CHANGE of IC50 (HIV-1 clinical isolate 3): (>23) fold; FOLD CHANGE of IC50 (HIV-1 clinical isolate 2): (>23) fold |
| COc1ccc(S(=O)(=O)N(CC(C)C)C[C@@H](O)[C@H](Cc2ccccc2)NC(=O)O[C@H]2CO[C@H]3OCC[C@H]32)cc1 [UIC-94003] | – | – | – | – | – | equivalent | – | – | – | – | – | – | – | – | – | – | – | IC50 (HIV-1APV-P30; HIV-1APV-P30 (L10F, V32I, M46I, I54M, A71V, I84V), MT-2 cells, MTT assay, day 7, read-out: IC50): 29 nM; IC50 ([1]; eight highly PI-resistant clinical isolates, PHA-PBMC, read-out: IC50 values, range over all eight isolates): 0.5 to 5.5 nM; IC50 ([2]; wild type HIV-1ERS104pre (L63P), PHA-PBMC, p24, read-out: IC50): 0.0007 µM; IC50 (HIV-1 clinical isolate 8): 1 nM; IC50 (HIV-2EHO): 0.0005 ± 7e-05 µM; IC50 (HIV-1 clinical isolate 4): 1.6 nM; IC50 (HIV-1 clinical isolate 5): 2.4 nM; IC50 (HIV-1 clinical isolate 3): 1 nM; IC50 (HIV-1UIC-P62): 21 nM; IC50 (HIV-1 clinical isolate 2): 1.3 nM |
| OC[C@@H]1CC[C@H](n2cnc3c(O)ncnc32)O1 [ddI, 2′,3′-dideoxyinosine] | – | 0.62 ± 0.02 µM | 3.4 ± 0.2 µM | 1.5 ± 1.1 µM | – | – | – | – | – | – | 2.8 ± 0.6 µM | – | – | – | – | – | – | – |
